Reference: patent US6835728B2, “Drug combination for the treatment of depression and related disorders comprising mirtazapine” (Akzo Nobel N.V., priority 2001, dated 2004)
Marks after values point to notes of the source that are not given here.

What was measured:
Type in all cases: in vivo
mice = test: Defensive (marble) burying test in mice; details: mouse, administered alone, S.C., pre-treatment 30 min
Source text: Marble burying has been developed and validated as a pre-clinical assay of potential anxiolytic activity (Andrews and Broekkamp (1993). Procedures to identify anxiolytic or anxiogenic agents. In Behavioural Neuroscience, ed. A Sahgal, pp. 37-54. IRL Press, Oxford). The marble burying test places a naive mouse into a novel environment containing 25 marbles (arranged on top of a saw dust surface). A reduction in the number of marbles buried by the mouse has been hypothesised to be an anxiolytic-like/anti-depressant-like effect.
A further series of three separate experiments were conducted during which three single doses of mirtazapine (0.3, 1, 3 mg.kg^−1) were co-administered S.C. with a range of S.C. gepirone doses (0, 0.1, 0.3, 1, 3 mg.kg^−1).

Sprague-Dawley rats [1] = test: Psychotropic drug class prediction by discriminant analysis of effects on rat sleep-waking behaviour; details: I.P.
Experimental: The effect profiles for these compounds at active doses were subjected to a discriminant analysis over these 6 psychoactive classes with placebo being added as an extra class. The resulting discriminant function was used to predict the pharmaco-therapeutic application area for gepirone alone and after co-administration with mirtazapine. Finally, the effect profiles of gepirone, mirtazapine, and the combination of gepirone and mirtazapine were calculated on the basis of vectors derived from the changes in sleep-wake organisation as shown in tables above. For each dose, the probability that the compound belongs to one of 7 defined classes was calculated.

Sprague-Dawley rats [2] = test: EEG sleep-waking behaviour test in rats; details: rat, I.P., change over control
Experimental: The aim of this test was to characterise the effects on rat sleep-waking behaviour of gepirone alone and of gepirone after co-administration with mirtazapine. To this end additionally the effects of mirtazapine on it own were investigated. Sleep-waking behaviour was analysed by using electroencephalographic (EEG) recordings, electromyographic (EMG) recordings, and by recording a movement index. On the basis of these signals sleep-waking behaviour was automatically classified per 2 second periods into 6 classes: active waking, passive waking, light sleep, deep sleep, intermediate stage sleep and REM sleep (Ruigt et al. A large scale automated system for rat sleep staging. I. Methodology and technical aspects. Electroenceph. and Clin. Neurophysiol.; 1989; 73:52-64). Each experiment is performed simultaneously on 32 adult male Sprague-Dawley rats (Harlan Olac, Bicester, UK, weighing […]), subdivided into four treatment groups. Throughout the whole experiment the animals stay in recording cages and are only taken out to be injected with vehicle or test compound(s). Each experiment contains three sessions. The first session (“test session”), commencing at 10:00 AM with a variable duration of 2-5 hours, serves as adaptation period and is used to assess the quality of the EEG and EMG signals recorded. The second and third sessions both start at 2:30 PM on two consecutive days and have a duration of 15.5 hours each. At the start of the second session all groups receive a vehicle treatment, at the start of the third session all groups receive their test compound(s). One of the treatment groups usually receives the vehicle treatment in both sessions to serve as a baseline for the other groups in the experiment. Separate experiments were done in which different single I.P. administered doses of either gepirone (1.0, 3.0, 10.0 mg/kg), or mirtazapine (2.2, 4.6, 10 mg/kg), or mirtazapine (2.2 mg/kg) in combination with gepirone (1.0, 3.0, 10 mg/kg) were tested. Gepirone was dissolved in 0.9% NaCl m/v in water (saline); mirtazapine was dissolved in 5% m/v Mulgofen (EL 719, GAF) in saline (=0.9% m/v NaCl in water). The drug-induced changes in sleep waking behaviours after I.P. administration of mirtazapine, gepirone, and mirtazapine in combination with gepirone are presented in Tables II, III and IV. […]

[3] = gepir 1.0 mg/kg, 0 to 3 hours after drug injection
[4] = gepir 1.0 mg/kg, 3 to 6 hours after drug injection
[5] = gepir 1.0 mg/kg, 9 to 15 hours after drug injection
[6] = gepir 3.0 mg/kg, 0 to 3 hours after drug injection
[7] = gepir 3.0 mg/kg, 3 to 6 hours after drug injection
[8] = gepir 3.0 mg/kg, 9 to 15 hours after drug injection
[9] = gepir 10.0 mg/kg, 0 to 3 hours after drug injection
[10] = gepir 10.0 mg/kg, 3 to 6 hours after drug injection
[11] = gepir 10.0 mg/kg, 9 to 15 hours after drug injection
[12] = mirt 2.2 mg/kg, 0 to 3 hours after drug injection
[13] = mirt 2.2 mg/kg, 3 to 6 hours after drug injection
[14] = mirt 2.2 mg/kg, 9 to 15 hours after drug injection

CC1(C)CC(=O)N(CCCCN2CCN(c3ncccn3)CC2)C(=O)C1 [Gepirone, gepirone]
ED50 marble burying (mice): 2.16 mg/kg | Probability score AC (anticonvulsant) (Sprague-Dawley rats [1]; gepirone 1.0 mg/kg): 7% | Probability score AD (antidepressant) (Sprague-Dawley rats [1]; gepirone 1.0 mg/kg): 1% | Probability score APS (antipsychotic) (Sprague-Dawley rats [1]; gepirone 1.0 mg/kg): 31% | Probability score AXL (anxiolytic) (Sprague-Dawley rats [1]; gepirone 1.0 mg/kg): 6% | Probability score HYP (hypnotic) (Sprague-Dawley rats [1]; gepirone 1.0 mg/kg): 20% | Probability score PLAC (placebo) (Sprague-Dawley rats [1]; gepirone 1.0 mg/kg): 35% | Probability score STIM (stimulant) (Sprague-Dawley rats [1]; gepirone 1.0 mg/kg): 0% | Probability score AC (anticonvulsant) (Sprague-Dawley rats [1]; gepirone 3.0 mg/kg): 29% | Probability score AD (antidepressant) (Sprague-Dawley rats [1]; gepirone 3.0 mg/kg): 28% | Probability score APS (antipsychotic) (Sprague-Dawley rats [1]; gepirone 3.0 mg/kg): 14% | Probability score AXL (anxiolytic) (Sprague-Dawley rats [1]; gepirone 3.0 mg/kg): 15% | Probability score HYP (hypnotic) (Sprague-Dawley rats [1]; gepirone 3.0 mg/kg): 9% | Probability score PLAC (placebo) (Sprague-Dawley rats [1]; gepirone 3.0 mg/kg): 6% | Probability score STIM (stimulant) (Sprague-Dawley rats [1]; gepirone 3.0 mg/kg): 0% | Probability score AC (anticonvulsant) (Sprague-Dawley rats [1]; gepirone 10.0 mg/kg): 6% | Probability score AD (antidepressant) (Sprague-Dawley rats [1]; gepirone 10.0 mg/kg): 16% | Probability score APS (antipsychotic) (Sprague-Dawley rats [1]; gepirone 10.0 mg/kg): 3% | Probability score AXL (anxiolytic) (Sprague-Dawley rats [1]; gepirone 10.0 mg/kg): 63% | Probability score HYP (hypnotic) (Sprague-Dawley rats [1]; gepirone 10.0 mg/kg): 0% | Probability score PLAC (placebo) (Sprague-Dawley rats [1]; gepirone 10.0 mg/kg): 0% | Probability score STIM (stimulant) (Sprague-Dawley rats [1]; gepirone 10.0 mg/kg): 12% | Latency from time of injection to Deep sleep (Sprague-Dawley rats [2]; [3]): 24% | Latency from time of injection to REM sleep (Sprague-Dawley rats [2]; [3]): 3% | Median duration Active waking (Sprague-Dawley rats [2]; [3]): −58* % | Median duration Deep sleep (Sprague-Dawley rats [2]; [3]): −2% | Median duration Intermediate sleep (Sprague-Dawley rats [2]; [3]): −11% | Median duration Light sleep (Sprague-Dawley rats [2]; [3]): 23% | Median duration Passive waking (Sprague-Dawley rats [2]; [3]): 13% | Median duration REM sleep (Sprague-Dawley rats [2]; [3]): 4% | Median duration Active waking (Sprague-Dawley rats [2]; [4]): 6% | Median duration Deep sleep (Sprague-Dawley rats [2]; [4]): −5% | Median duration Intermediate sleep (Sprague-Dawley rats [2]; [4]): 32% | Median duration Light sleep (Sprague-Dawley rats [2]; [4]): 8% | Median duration Passive waking (Sprague-Dawley rats [2]; [4]): 5% | Median duration REM sleep (Sprague-Dawley rats [2]; [4]): 20% | Median duration Deep sleep (Sprague-Dawley rats [2]; [5]): 2% | Median duration Intermediate sleep (Sprague-Dawley rats [2]; [5]): −2% | Median duration Light sleep (Sprague-Dawley rats [2]; [5]): 14% | Median duration Passive waking (Sprague-Dawley rats [2]; [5]): 38% | Median duration REM sleep (Sprague-Dawley rats [2]; [5]): −12% | Median duration Active waking (Sprague-Dawley rats [2]; gepir 1.0 mg/kg): −16% | Latency from time of injection to Deep sleep (Sprague-Dawley rats [2]; [6]): 24% | Latency from time of injection to REM sleep (Sprague-Dawley rats [2]; [6]): 360* % | Median duration Active waking (Sprague-Dawley rats [2]; [6]): −8% | Median duration Deep sleep (Sprague-Dawley rats [2]; [6]): −21% | Median duration Intermediate sleep (Sprague-Dawley rats [2]; [6]): −76% | Median duration Light sleep (Sprague-Dawley rats [2]; [6]): 8% | Median duration Passive waking (Sprague-Dawley rats [2]; [6]): 156* % | Median duration REM sleep (Sprague-Dawley rats [2]; [6]): −83* % | Median duration Active waking (Sprague-Dawley rats [2]; [7]): 30% | Median duration Deep sleep (Sprague-Dawley rats [2]; [7]): −6% | Median duration Intermediate sleep (Sprague-Dawley rats [2]; [7]): 64* % | Median duration Light sleep (Sprague-Dawley rats [2]; [7]): −2% | Median duration Passive waking (Sprague-Dawley rats [2]; [7]): 13% | Median duration REM sleep (Sprague-Dawley rats [2]; [7]): −3% | Median duration Active waking (Sprague-Dawley rats [2]; [8]): −37* % | Median duration Deep sleep (Sprague-Dawley rats [2]; [8]): −7% | Median duration Intermediate sleep (Sprague-Dawley rats [2]; [8]): 36% | Median duration Light sleep (Sprague-Dawley rats [2]; [8]): 67% | Median duration Passive waking (Sprague-Dawley rats [2]; [8]): 55% | Median duration REM sleep (Sprague-Dawley rats [2]; [8]): 40% | Latency from time of injection to Deep sleep (Sprague-Dawley rats [2]; [9]): 268% | Latency from time of injection to REM sleep (Sprague-Dawley rats [2]; [9]): 673* % | Median duration Active waking (Sprague-Dawley rats [2]; [9]): 72% | Median duration Deep sleep (Sprague-Dawley rats [2]; [9]): −63* % | Median duration Intermediate sleep (Sprague-Dawley rats [2]; [9]): −100* % | Median duration Light sleep (Sprague-Dawley rats [2]; [9]): −2% | Median duration Passive waking (Sprague-Dawley rats [2]; [9]): 198% | Median duration REM sleep (Sprague-Dawley rats [2]; [9]): −100* % | Median duration Active waking (Sprague-Dawley rats [2]; [10]): −18% | Median duration Deep sleep (Sprague-Dawley rats [2]; [10]): −19% | Median duration Intermediate sleep (Sprague-Dawley rats [2]; [10]): 56% | Median duration Light sleep (Sprague-Dawley rats [2]; [10]): 35% | Median duration Passive waking (Sprague-Dawley rats [2]; [10]): −40% | Median duration REM sleep (Sprague-Dawley rats [2]; [10]): −50* % | Median duration Active waking (Sprague-Dawley rats [2]; [11]): −23* % | Median duration Deep sleep (Sprague-Dawley rats [2]; [11]): −5% | Median duration Intermediate sleep (Sprague-Dawley rats [2]; [11]): 108* % | Median duration Light sleep (Sprague-Dawley rats [2]; [11]): 23% | Median duration Passive waking (Sprague-Dawley rats [2]; [11]): 7% | Median duration REM sleep (Sprague-Dawley rats [2]; [11]): 64%

CN1CCN2c3ncccc3Cc3ccccc3C2C1 (centres unmarked) [Mirtazapine, mirtazapine]
ED50 marble burying (mice): 5.5 mg/kg | Probability score AC (anticonvulsant) (Sprague-Dawley rats [1]; mirtazapine 2.2 mg/kg): 9% | Probability score AD (antidepressant) (Sprague-Dawley rats [1]; mirtazapine 2.2 mg/kg): 22% | Probability score APS (antipsychotic) (Sprague-Dawley rats [1]; mirtazapine 2.2 mg/kg): 3% | Probability score AXL (anxiolytic) (Sprague-Dawley rats [1]; mirtazapine 2.2 mg/kg): 20% | Probability score HYP (hypnotic) (Sprague-Dawley rats [1]; mirtazapine 2.2 mg/kg): 29% | Probability score PLAC (placebo) (Sprague-Dawley rats [1]; mirtazapine 2.2 mg/kg): 16% | Probability score STIM (stimulant) (Sprague-Dawley rats [1]; mirtazapine 2.2 mg/kg): 0% | Latency from time of injection to Deep sleep (Sprague-Dawley rats [2]; [12]): −36% | Latency from time of injection to REM sleep (Sprague-Dawley rats [2]; [12]): 27% | Median duration Active waking (Sprague-Dawley rats [2]; [12]): 19% | Median duration Deep sleep (Sprague-Dawley rats [2]; [12]): 13% | Median duration Intermediate sleep (Sprague-Dawley rats [2]; [12]): −85* % | Median duration Light sleep (Sprague-Dawley rats [2]; [12]): 7% | Median duration Passive waking (Sprague-Dawley rats [2]; [12]): −5% | Median duration REM sleep (Sprague-Dawley rats [2]; [12]): −88* % | Median duration Active waking (Sprague-Dawley rats [2]; [13]): 68% | Median duration Deep sleep (Sprague-Dawley rats [2]; [13]): 19% | Median duration Intermediate sleep (Sprague-Dawley rats [2]; [13]): −74* % | Median duration Light sleep (Sprague-Dawley rats [2]; [13]): 10% | Median duration Passive waking (Sprague-Dawley rats [2]; [13]): 17% | Median duration REM sleep (Sprague-Dawley rats [2]; [13]): −52* % | Median duration Active waking (Sprague-Dawley rats [2]; [14]): −16% | Median duration Deep sleep (Sprague-Dawley rats [2]; [14]): 20% | Median duration Light sleep (Sprague-Dawley rats [2]; [14]): 27% | Median duration Passive waking (Sprague-Dawley rats [2]; [14]): −8% | Median duration REM sleep (Sprague-Dawley rats [2]; [14]): 22% | Median duration Intermediate sleep (Sprague-Dawley rats [2]; mirt 2.2 mg/kg): 111%
